Here are results for four molecules from patent US20190249134A1, “CELL CULTURES AND USE THEREOF” (Boston Biomedical, Inc., priority 2016, published 2019).

One test deals with A549 cells. Description: Sphere formation assay in alginate-based 3D cell culture, IC50 compared with clonogenic assay in conventional 2D culture. The following applies: for IC50 in the alginate-based 3D cell culture relative to the conventional 2D culture: 3D sphere formation vs 2D clonogenic assay, FIG. 4A; for fold change resistance (IC50 in alginate-based 3D cell culture divided by IC50 in conventional 2D culture): FIG. 4B. From the text: Without limiting the scope of the present disclosure or appended claims with any particular theory or hypothesis, since the stemness is associated with a resistance to chemotherapy, cells cultured in an alginate-based 3D cell culture may be more resistant to chemotherapy drugs and more sensitive to stemness-targeting drugs than cells cultured in traditional 2D cultures. To evaluate the response of cells to drugs, the IC50 values of cells in both the alginate-based 3D and the conventional 2D cell cultures were determined. FIG. 4A summarizes the IC50 of the CSC-targeting therapies (BBI-608, BBI-503), chemotherapies (doxorubicin and gemcitabine), and a targeted therapy (sunitinib) with respect to A549 cells in the alginate-based 3D cell culture and the traditional 2D culture. […] To compare the effect of culturing cells in the alginate-based 3D and the conventional 2D cell cultures on IC50, the fold change in resistance can be calculated by obtaining the ratio of IC50 value in the alginate-based 3D cell culture to the IC50 value in the conventional 2D culture.
Into each well of a flat bottom-96 well plate, 30 μL suspension of the cells in alginate solution was dispensed. 9 μL of crosslinking solution was then added to each well to form alginate gels and thus embed A549 cells into the gel matrix. The plates were then incubated for 15 minutes at 37° C. to ensure a complete gelling of alginate, and then cultured in Prime XV media overnight. After the overnight culture, the cells were treated with various concentrations of BBI-608, BBI-503, sunitinib, doxorubicin, or gemcitabine for 24 h. The plates were then washed and cultured in fresh media for an additional 11 days before imaging the cultures with Celigo Imaging Cytometer (Nexcelcom Bioscience, Lawrence, Mass.). The number of spheres were counted, and used to calculate the IC50 values using Prism 5 (GraphPad).
A549 cells were plated in 6-well plates (1×10^3 A549 cells/well). After an overnight incubation in DMEM media, the cells were treated with various concentrations of BBI-608 for 24h, or BBI-503, sunitinib, doxorubicin, and gemcitabine for 72 hours. The plates were washed, and cultured in fresh media for an additional 6 days before staining the colonies with Giemsa Stain (Sigma, St. Louis, Mo.). The colonies were imaged using a ChemiDoc™ MP Imaging System (BioRad), and the number of colonies were counted using ImageJ (National Institutes of Health, Bethsada, Md.), and the IC50 values calculated using Prism 5.

The next test relates to A549 cellular spheroids. Kind of test: Efficacy on pre-formed cellular spheroids in alginate-based 3D cell culture (CellTox dead stain). The following applies: pre-formed A549 spheroids (11 days), concentrations near IC50 values, 7 days after drug treatment; FIG. 5. On the procedure:
To evaluate the efficacy of the drugs in diffusion-limited environments, A549 cells were embedded and cultured for 11 days before any drug treatment (BBI-608, BBI-503, gemcitabine, or doxorubicin). Spheroids of A549 cells were pre-formed from single cells embedded in an alginate-based 3D cell culture for 11 days. The pre-formed spheroids were treated with drugs (0.3 μM BBI-608, 2.5 μM BBI-503, 30 μM sunitinib, 4 μM doxorubicin, 0.5 μM gemcitabine) and incubated with the dead stain CellTox Dye. Micrographs were taken 7 days after the drug treatments.
In a 6-well plate, A549 cells were embedded in an alginate-based 3D cell culture and cultured for 11 days before addition of BBI-608, BBI-503, sunitinib, doxorubicin, and gemcitabine. Cells were cultured for an additional 7 days before staining them with CellTox™ Green Dye (Promega) to stain the dead cells. Images of the stained samples were taken using an EVOS fluorescence microscope (Life Technologies, Carlsbad, Calif.).

As for `CCN(CC)CCNC(=O)c1c(C)[nH]c(/C=C2\C(=O)Nc3ccc(-c4csc(-c5ccccc5)n4)cc32)c1C` [BBI-503], in the test with A549 cells, the “IC50 in the alginate-based 3D cell culture relative to the conventional 2D culture” value is “lower” and the “fold change resistance (IC50 in alginate-based 3D cell culture divided by IC50 in conventional 2D culture)” value is “less than single-fold”. In the test with A549 cellular spheroids, the “cell death, share of spheroids” value is given as “about 90%”.
With `CC(=O)c1cc2c(o1)C(=O)c1ccccc1C2=O` [BBI-608, 2-acetylnaphtho[2,3-b]furan-4,9-dione], in the test with A549 cells, the “IC50 in the alginate-based 3D cell culture relative to the conventional 2D culture” value is on record as “lower” and the “fold change resistance (IC50 in alginate-based 3D cell culture divided by IC50 in conventional 2D culture)” value is “less than single-fold”. Also, the “cell death, share of spheroids” value with A549 cellular spheroids is listed as “about 90%”.
`COc1cccc2c1C(=O)c1c(O)c3c(c(O)c1C2=O)C[C@@](O)(C(=O)CO)C[C@@H]3O[C@H]1C[C@H](N)[C@H](O)[C@H](C)O1` [doxorubicin, reference compound]: in the test on A549 cells, the “IC50 in the alginate-based 3D cell culture relative to the conventional 2D culture” value is on record as “greater”.
Same read-out and setting: the entry for `Nc1ccn([C@@H]2O[C@H](CO)[C@@H](O)C2(F)F)c(=O)n1` [gemcitabine, reference compound] is “greater”.
